From patent US9382230B2, “Methods and compositions for modulating Ire1, SRC and ABL activity” (The Regents of the University of California, priority 2008, dated 2016)
pIC50: −log10 of the molar value. Each block holds one compound with its values, some of them ahead of it.

Key:
[1] = system: Xbp-1 mRNA splicing (UPR activation through Ire1) in HEK293 cells; assay: XBP-1 mRNA splicing by RT-PCR in HEK293 cells (UPR); assay type: cell-based, mammalian; conditions: for % splicing mRNA XBP-I Average: Hek293 cells treated for 4 hrs, RT-PCR
Method: The effect of tunicamycin, SU11248, DJM2005, APY24, and APY29 on Ire1 activity was tested in mammalian cells using HEK293 cells as a model system. Cells were treated according to the methods described in Lin J H et al., Science 318:944 (2007). After treatment with the corresponding agents for the indicated time, Xbp-1 mRNA splicing was determined by RT-PCR. Unspliced (u) and spliced (s) Xbp1-mRNA products are indicated and serve as a measure of UPR activation through Ire1.
Exemplary compounds were assayed for their effect on UPR. Results are set forth in FIGS. 18-19 and in the table below.

[2] = molecular target: T1, yIre1 (Saccharomyces cerevisiae, UniProt P32361); assay: RNA cleavage-based yIre1 activation assay; assay type: biochemical, yeast; design: unit not given here; conditions: 3 μM yIre1, stem loop RNA, 15 μM effector
T1 construct: GST (N); made in house; host or cells: E. coli BL21 CodonPlus (RIPL)
T1 sequence (P32361 with tags, fused parts or gaps limits assumed): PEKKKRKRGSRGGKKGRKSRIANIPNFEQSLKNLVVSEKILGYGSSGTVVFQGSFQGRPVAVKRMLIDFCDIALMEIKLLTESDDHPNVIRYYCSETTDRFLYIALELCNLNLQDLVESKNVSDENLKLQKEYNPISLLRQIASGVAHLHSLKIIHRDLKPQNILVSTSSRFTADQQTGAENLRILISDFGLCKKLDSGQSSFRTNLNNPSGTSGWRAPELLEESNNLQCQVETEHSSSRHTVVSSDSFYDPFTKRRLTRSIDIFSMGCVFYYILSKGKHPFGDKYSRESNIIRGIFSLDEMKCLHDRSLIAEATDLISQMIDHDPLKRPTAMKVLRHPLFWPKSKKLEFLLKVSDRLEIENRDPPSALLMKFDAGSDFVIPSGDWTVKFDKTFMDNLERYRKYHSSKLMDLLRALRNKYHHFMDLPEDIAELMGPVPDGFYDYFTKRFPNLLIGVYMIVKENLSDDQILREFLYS
Method: The RNase Cleavage Assay.
(§1) RNA cleavage reactions were conducted at 30° C. in buffer containing 20 mM HEPES (pH 7.5), 70 mM NaCl, 2 mM ADP (pH 7.0), 2 mM Mg(OAc)2, 5 mM DTT, 5% glycerol, less than 1 nM ^32p-labeled RNA substrate, and 3 nM-20 μM Ire1. Reaction solutions and buffers were designed using Biochem Lab Solutions 3.5. Reactions were prepared such that 1 μl of RNA was added to 9 μl of pre-warmed reaction mixture containing all components except RNA. Typically, 3-10 minute time courses were collected starting from 5 seconds for the first time point. At time intervals, 1 μl of solution was withdrawn from each reaction and mixed wish 6 μl stop solution containing 10 M urea, 0.1% SDS, 0.1 mM EDTA, 0.05% xylene cyanol, and 0.05% bromophenol blue. The samples were separated by a denaturing 10% PAGE and exposed on a phosphor storage screen. The screens were scanned on a Storm or a Typhoon instrument and quantified using ImageQuant 5.0 or GelQuant.NET 1.4 programs. The data were plotted and fit in SigmaPlot 6.0.
RNA cleavage can be used to assess yIre1 activation as shown by FIG. 20 and the table below (3 μM yIre1, stem loop RNA, 15 μM effector): […]

[3] = system: Ire1; assay: Summary statement of Ire1 activation or inhibition (assay not specified)
[4] = system: XBP1-GFP reporter in Hek293-FT cells; assay: FACS on Hek293-FT cells transfected with XBP1-GFP reporter; assay type: cell-based; conditions: treated for 24 hrs
Method: Exemplary compounds were assayed and the results are set froth in the table below.

[5] = molecular target: T2, Ire1KR32 (Saccharomyces cerevisiae, UniProt P32361); assay: RNase cleavage assay with Ire1 cytosolic constructs (Ire1KR32), co-factors and kinase inhibitors; assay type: biochemical; conditions: for activation of the RNase of Ire1KR32: FIG. 3A
T2 construct: Overview of the Ire1 constructs; GST (N); made in house; host or cells: E. coli BL21 CodonPlus (RIPL)
T2 sequence (P32361 with tags, fused parts or gaps): T1 sequence (P32361 with tags, fused parts or gaps limits assumed)
Method: as §1
Variants of the cytosolic portion of Ire1 that contain the kinase and the RNase domains (Ire1KR) and Ire1KR extended by 24 (Ire1KR24) or 32 (Ire1KR32) amino acids towards the N-terminus (FIG. 1A, FIG. 1C, FIG. 7) were prepared. These additional amino acid extensions are part of a ˜100 amino acid-long linker domain that tethers the kinase/RNase domains to the transmembrane domain. All three constructs cleaved site-specifically 5′-32p-labeled stem-loop oligoribonucleotides 14 derived from the XBP1 mRNA (FIG. 1B, FIG. 8). […] No ADP.Mg co-factor was required for the cooperative activation of the RNase.
Ire1KR32 was co-crystallized with inhibitors that were designed to target CDK2 and EGFR kinases. Certain kinase inhibitors fully activated the RNase function of Ire1 (FIG. 3A). This is the first example of wild-type Ire1 activation by synthetic compounds.
Crystals obtained with the inhibitor APY29 allowed the structure determination of the Ire1KR32-APY29 complex at 3.9 Å resolution. A well-resolved density for the inhibitor molecule was found in the ATP binding pocket of the Ire1 kinase domain (FIG. 3B). APY29 forms an extensive hydrogen-bonding network with the protein backbone formed by E746, L747, and C748 (FIG. 3C). Hydrogen bonds are likely to also form with two side chains at the active site, N751, and D828. […] Manual fitting of sunitinib guided by know structures of kinase.inhibitor complexes (e.g., PDB IDs 2G9X and 2F4J) predicts that the compound fills the nucleobase site, but not the sugar and the phosphate sub-sites. […] AIN54 could not be readily fit to the ATP pocket due to steric clashes arising partly because of the unusual position of beta strand β1 that covers the nucleotide-binding pocket of the Ire1 kinase.
This structural difference provides an excellent tool to test the role of magnesium in the RNase activity of Ire1. Accordingly, the effect of EDTA on the RNase activity of Ire1KR32 was examined.

[6] = molecular target: WT Src (Homo sapiens, UniProt P12931); assay: c-Src kinase cross-reactivity assay; assay type: biochemical
Method: (§2) Assays for cross-reactivity with Src and Abl were also conducted. Purified c-Src or Abl were diluted in kinase reaction buffer (10 mM HEPES (pH 7.2), 10 mM MgCl2, 0.2 mM DTT) to a concentration of approximately 10 nM and pre-incubated with 1 mg/mL BSA, 2.5% (v/v) DMSO, 133 μM peptide (sequence EAIYAAPFKKK for Abl and EIYGEFKKK for c-Src), and varying concentrations of inhibitor. Kinase reactions were initiated by the addition of […] cold ATP supplemented with 5 mCi γ^32P ATP and allowed to proceed at room temperature (RT). At 10 minutes […] of the reactions were spotted onto phosphocellulose sheets (P81, Whatman) and subsequently soaked in was buffer (1.0% (v/v) phosphoric acid). The sheets were washed five times in buffer, dried, and transferred radioactivity was measured by phosphorimaging using a Typhoon™ scanner (Molecular Dynamics). Radioactive counts were quantified using ImageQuant software, and titration data were fit to a sigmoidal dose response to derive IC50 values using the Prism® software package. Dose responses were based on a 12 point inhibitor titration, using ⅓ dilutions starting from […].

[7] = molecular target: WT Abl (Homo sapiens, UniProt P00519); assay: Abl kinase cross-reactivity assay; assay type: biochemical
Method: as §2

[8] = molecular target: human Ire1 (Homo sapiens, UniProt O75460); assay: In vitro cleavage of 32P-stem-loop RNA by human Ire1; assay type: biochemical; conditions: AD series of Ire1 modulators
Method: as §1
In vitro cleavage of ^32P-stem-loop RNA by human Ire1, with AD series of Ire1 modulators gave the following results: […]

[9] = molecular target: T1, yIre1; assay: RNA cleavage-based yIre1 inhibition assay with pre-activated purified Ire1; assay type: biochemical, yeast; conditions: 1.5 μM yIre1, 100 μM ADP-2 mM Mg, 30 μM effector (FIG. 21A)
Method: FIGS. 21A and B. A. RNA cleavage-based yIre1 inhibition assay with purified Ire1 under conditions that have pre-activated Ire1. […] Thus, some APY compounds could serve as both Ire1 RNase inhibitors or Ire1 RNase activators, depending on the experimental setting.
as §1, with “RNA cleavage reactions were conducted at 30° C. in buffer containing 20 mM HEPES (pH 7.5), 70 mM NaCl, 2 mM ADP (pH 7.0), 2 mM Mg(OAc)2, 5 mM DTT, 5% glycerol, less than 1 nM ^32p-labeled RNA substrate, and 3 nM-20 μM Ire1.” left out
An RNA cleavage inhibition assay was also performed with exemplary compounds as shown by FIG. 21A (1.5 μM yIre1 mm loop RNA, 100 μM ADP-2 mM Mg, 30 μM effector).

Sequence of WT Abl (P00519 whole entry): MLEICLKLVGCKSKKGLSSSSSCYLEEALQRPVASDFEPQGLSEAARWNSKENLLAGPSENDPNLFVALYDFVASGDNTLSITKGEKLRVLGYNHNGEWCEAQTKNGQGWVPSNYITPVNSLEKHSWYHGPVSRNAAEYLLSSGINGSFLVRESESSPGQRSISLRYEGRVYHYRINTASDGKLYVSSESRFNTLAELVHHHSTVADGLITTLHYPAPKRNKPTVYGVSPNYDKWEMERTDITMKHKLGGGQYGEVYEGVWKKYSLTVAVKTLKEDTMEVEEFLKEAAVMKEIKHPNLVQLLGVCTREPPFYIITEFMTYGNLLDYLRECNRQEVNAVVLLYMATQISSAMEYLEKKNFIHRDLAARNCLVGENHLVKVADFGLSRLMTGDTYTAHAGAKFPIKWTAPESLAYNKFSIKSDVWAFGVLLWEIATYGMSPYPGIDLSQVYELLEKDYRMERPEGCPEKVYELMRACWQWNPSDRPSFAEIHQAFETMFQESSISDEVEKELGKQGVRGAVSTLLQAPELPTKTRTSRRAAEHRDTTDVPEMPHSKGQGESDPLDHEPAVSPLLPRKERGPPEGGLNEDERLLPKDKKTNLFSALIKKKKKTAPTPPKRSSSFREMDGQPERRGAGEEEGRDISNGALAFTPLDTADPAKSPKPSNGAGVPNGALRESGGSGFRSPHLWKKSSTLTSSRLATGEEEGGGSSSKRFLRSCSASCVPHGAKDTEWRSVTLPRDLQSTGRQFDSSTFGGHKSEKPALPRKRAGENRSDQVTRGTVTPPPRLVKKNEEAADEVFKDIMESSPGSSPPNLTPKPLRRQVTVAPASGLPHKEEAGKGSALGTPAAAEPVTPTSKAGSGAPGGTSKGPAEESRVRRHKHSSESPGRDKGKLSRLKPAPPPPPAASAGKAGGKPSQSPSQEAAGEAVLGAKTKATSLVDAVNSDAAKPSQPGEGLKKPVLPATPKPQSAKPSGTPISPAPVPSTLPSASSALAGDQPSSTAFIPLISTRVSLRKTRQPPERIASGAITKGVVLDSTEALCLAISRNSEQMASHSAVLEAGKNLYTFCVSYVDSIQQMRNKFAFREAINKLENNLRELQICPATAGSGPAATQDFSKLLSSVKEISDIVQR
Sequence of WT Src (P12931 whole entry): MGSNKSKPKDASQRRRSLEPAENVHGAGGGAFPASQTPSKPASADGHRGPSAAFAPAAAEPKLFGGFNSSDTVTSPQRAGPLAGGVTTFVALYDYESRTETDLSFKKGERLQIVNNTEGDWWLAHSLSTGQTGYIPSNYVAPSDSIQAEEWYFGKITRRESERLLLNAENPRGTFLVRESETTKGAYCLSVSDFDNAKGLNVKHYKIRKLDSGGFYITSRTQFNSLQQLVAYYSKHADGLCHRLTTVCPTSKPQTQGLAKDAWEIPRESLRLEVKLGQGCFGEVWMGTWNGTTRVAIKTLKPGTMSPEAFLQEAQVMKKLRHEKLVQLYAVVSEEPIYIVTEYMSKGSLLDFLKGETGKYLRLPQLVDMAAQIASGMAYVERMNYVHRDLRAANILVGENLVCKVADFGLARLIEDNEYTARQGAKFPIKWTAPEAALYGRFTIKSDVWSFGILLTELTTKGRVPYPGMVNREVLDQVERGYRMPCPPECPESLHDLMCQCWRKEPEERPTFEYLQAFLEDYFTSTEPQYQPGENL
Sequence of human Ire1 (O75460 19-977): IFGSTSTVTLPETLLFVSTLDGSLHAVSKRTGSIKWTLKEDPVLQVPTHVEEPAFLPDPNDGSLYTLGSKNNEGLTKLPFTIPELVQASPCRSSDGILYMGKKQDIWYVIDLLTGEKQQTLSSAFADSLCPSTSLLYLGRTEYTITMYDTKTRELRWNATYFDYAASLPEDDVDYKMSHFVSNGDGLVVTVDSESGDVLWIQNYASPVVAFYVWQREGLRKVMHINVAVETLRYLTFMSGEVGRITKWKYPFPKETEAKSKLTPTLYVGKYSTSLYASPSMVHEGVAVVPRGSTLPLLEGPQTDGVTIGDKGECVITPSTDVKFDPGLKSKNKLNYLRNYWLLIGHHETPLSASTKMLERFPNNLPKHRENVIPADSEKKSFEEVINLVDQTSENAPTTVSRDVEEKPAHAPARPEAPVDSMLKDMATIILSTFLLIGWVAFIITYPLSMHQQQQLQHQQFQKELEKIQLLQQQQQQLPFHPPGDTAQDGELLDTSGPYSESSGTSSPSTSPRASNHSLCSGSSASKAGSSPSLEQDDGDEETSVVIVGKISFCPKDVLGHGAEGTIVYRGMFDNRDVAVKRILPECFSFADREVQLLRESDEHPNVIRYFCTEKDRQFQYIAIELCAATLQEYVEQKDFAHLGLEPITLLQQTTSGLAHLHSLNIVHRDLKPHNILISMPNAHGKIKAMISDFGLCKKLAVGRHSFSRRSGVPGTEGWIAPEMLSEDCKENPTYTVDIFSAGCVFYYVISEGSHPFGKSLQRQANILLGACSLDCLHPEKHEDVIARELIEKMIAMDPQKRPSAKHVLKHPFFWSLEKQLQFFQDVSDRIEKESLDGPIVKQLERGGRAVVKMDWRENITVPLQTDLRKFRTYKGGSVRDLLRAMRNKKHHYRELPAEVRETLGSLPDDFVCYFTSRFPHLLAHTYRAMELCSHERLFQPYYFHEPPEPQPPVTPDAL

SMILES: O=C(Nc1ccc(Nc2nccc(Nc3cc(C4CC4)n[nH]3)n2)cc1)Nc1cccc(C(F)(F)F)c1 [AD75, 1-(4-(4-(3-cyclopropyl-1H-pyrazol-5-ylamino)pyrimidin-2-ylamino)phenyl)-3-(3-(trifluoromethyl)phenyl)urea]
pIC50 [6]: 6.77 | activation of Ire1 [3]: significant activation | pIC50 [7]: 5.61 | In vitro cleavage of 32P-stem-loop RNA by human Ire1 [8]: 0.2317

SMILES: O=C(Nc1ccc(Nc2nccc(Nc3cc(C4CC4)n[nH]3)n2)cc1)c1cccc(C(F)(F)F)c1 [AD74, N-(4-(4-(3-cyclopropyl-1H-pyrazol-5-ylamino)pyrimidin-2-ylamino)phenyl)-3-(trifluoromethyl)benzamide]
pIC50 [6]: 6.45 | activation of Ire1 [3]: significant activation | pIC50 [7]: 5.67 | In vitro cleavage of 32P-stem-loop RNA by human Ire1 [8]: 0.0877

SMILES: N#CCc1ccc(Nc2nccc(Nc3cc(C4CC4)[nH]n3)n2)cc1 [APY24]
% splicing mRNA XBP-I Average ([1]; Tm 0.3 ug/ml + compound 2 μM): 28% | % splicing mRNA XBP-I Average ([1]; compound 2 μM): 30% | % splicing mRNA XBP-I Average ([1]; compound 10 μM): 44% | in vivo activation of Ire1 ([1]; summary statement): significant in vivo activation | RNA cleavage (yIre1 activation) [2]: 0.04667 | activation of Ire1 [3]: significant activation | % fold induction to Control ([4]; Tm 0.3 ug/ml + compound 2 uM): −2% | Mean fluorescence ([4]; Tm 0.3 ug/ml + compound 2 uM): 2387 | % fold induction to Control ([4]; compound 2 uM): 6% | Mean fluorescence ([4]; compound 2 uM): 2569 | activation of the RNase of Ire1KR32 [5]: Potent activators

Second part, led by results:

RNA cleavage (yIre1 activation) [2]: 0.07509 | activation of the RNase of Ire1KR32 [5]: Potent activators | effect of EDTA (chelation of magnesium) on RNase activity of Ire1KR32 stimulated by the substance ([5]; FIG. 3F): remained unchanged
SMILES: c1cc(Nc2cc(C3CC3)[nH]n2)nc(Nc2ccc3[nH]cnc3c2)n1 [APY29]
% splicing mRNA XBP-I Average ([1]; Tm 0.3 ug/ml + compound 2 μM): 40% | % splicing mRNA XBP-I Average ([1]; compound 2 μM): 10% | % splicing mRNA XBP-I Average ([1]; compound 10 μM): 14% | activation of Ire1 [3]: significant activation | % fold induction to Control ([4]; Tm 0.3 ug/ml + compound 2 uM): 65% | Mean fluorescence ([4]; Tm 0.3 ug/ml + compound 2 uM): 4016 | % fold induction to Control ([4]; compound 2 uM): 11% | Mean fluorescence ([4]; compound 2 uM): 2697

pIC50 [6]: 6.86 | pIC50 [7]: 5.30 | In vitro cleavage of 32P-stem-loop RNA by human Ire1 [8]: 0.0139
SMILES: O=C(Nc1cccc(Nc2nccc(Nc3cc(C4CC4)n[nH]3)n2)c1)c1cccc(C(F)(F)F)c1 [AD76, N-(3-(4-(3-cyclopropyl-1H-pyrazol-5-ylamino)pyrimidin-2-ylamino)phenyl)-3-(trifluoromethyl)benzamide]
activation of Ire1 [3]: significant activation

pIC50 [6]: 6.35 | pIC50 [7]: 4.43 | In vitro cleavage of 32P-stem-loop RNA by human Ire1 [8]: 0.0239
SMILES: O=C(Nc1cccc(Nc2nccc(Nc3cc(C4CC4)n[nH]3)n2)c1)Nc1cccc(C(F)(F)F)c1 [AD77, 1-(3-(4-(3-cyclopropyl-1H-pyrazol-5-ylamino)pyrimidin-2-ylamino)phenyl)-3-(3-(trifluoromethyl)phenyl)urea]
activation of Ire1 [3]: significant activation

inhibition of Ire1 RNase [9]: inhibit Ire1 | RNA cleavage (yIre1 activation) [2]: 0.001872
SMILES: Cc1cc(Nc2cc(C3CCCCC3)n[nH]2)nc(Nc2ccc(CC#N)cc2)n1 [APY81]
% splicing mRNA XBP-I Average ([1]; Tm 0.3 ug/ml + compound 2 μM): 7% | % splicing mRNA XBP-I Average ([1]; compound 2 μM): 11% | % splicing mRNA XBP-I Average ([1]; compound 10 μM): 16% | inhibition of Ire1 [3]: significant inhibition
